Assay results: US20220241312A1, “COMPOUNDS FOR TREATING CANCER” (Tems Pharmaceuticals, Inc., priority 2019, published 2022)
Counter-ions that a name gives are not always drawn.

Key:
[1] = tested on: pancreatic cell line MIAPACA-2; assay: Cytotoxicity assay (CellTiter Glo), MIAPACA-2; type: cell-based; settings: Homo sapiens, MIA PaCa-2, 72 h or 120 h incubation, Compound No. 1 tested as TEA salt
Protocol: (§1) Cytotoxicity of the test compounds were determined for multiple cell lines including gastric cancer cell lines NCI-N-87-luc and MKN45; liver cancer cell lines HepG2, Hep3B, and Huh7; pancreatic cell lines MIAPACA-2 and PANC-1; and colon cancer cell lines HT-29 and HCT-116.
(§2) Test compounds were prepared as 10 mM stock solutions. 5-FU, the control compound, was also prepared as a 10 mM stock solution. 45 μL of stock solution was transferred to a 384 polypropylene plate. The test and control compounds were then serially diluted 3 fold 10 times by transferring 15 μL compound solution into 30 μL DMSO by using TECAN (EVO200) liquid handler. […]
(§3) For each cell line assayed, cells were grown in a flask and then were harvested from the flask into cell culture medium. The cell number was counted and the cells were diluted with cell culture medium to the 2.5*10^4 cells/mL. […]
(§4) The cell culture plates were covered with a lid, placed at room temperature for 30 min without shaking, and transferred into a 37° C. […] On the desired day, cytotoxicity of the compounds was detected using CellTiter Glo. […] 40 μL of CellTiter-Glo reagent was added into each well to be detected (at 1:1 to culture medium). The plates were placed at room temperature for 30 min and then luminescence was detected using an EnSpire plate reader. […]

[2] = tested on: colon cancer cell line HT-29; assay: Cytotoxicity assay (CellTiter Glo), HT-29; type: cell-based; settings: Homo sapiens, 72 h or 120 h incubation, Compound No. 1 tested as TEA salt
Protocol: as §1, §2, §3, §4

[3] = tested on: gastric cancer cell line NCI-N-87-luc; assay: Cytotoxicity assay (CellTiter Glo), NCI-N-87-luc; type: cell-based; settings: 72 h or 120 h incubation, Compound No. 1 tested as TEA salt
Protocol: as §1, §2, §3, §4

[4] = tested on: pancreatic cell line PANC-1; assay: Cytotoxicity assay (CellTiter Glo), PANC-1; type: cell-based; settings: Homo sapiens, 72 h or 120 h incubation, Compound No. 1 tested as TEA salt
Protocol: as §1, §2, §3, §4

[5] = molecular target: T1, dihydropyrimidine dehydrogenase (DPD) (Homo sapiens, UniProt Q12882); settings: background statement; cited from earlier work
T1 sequence (Q12882 4-1025): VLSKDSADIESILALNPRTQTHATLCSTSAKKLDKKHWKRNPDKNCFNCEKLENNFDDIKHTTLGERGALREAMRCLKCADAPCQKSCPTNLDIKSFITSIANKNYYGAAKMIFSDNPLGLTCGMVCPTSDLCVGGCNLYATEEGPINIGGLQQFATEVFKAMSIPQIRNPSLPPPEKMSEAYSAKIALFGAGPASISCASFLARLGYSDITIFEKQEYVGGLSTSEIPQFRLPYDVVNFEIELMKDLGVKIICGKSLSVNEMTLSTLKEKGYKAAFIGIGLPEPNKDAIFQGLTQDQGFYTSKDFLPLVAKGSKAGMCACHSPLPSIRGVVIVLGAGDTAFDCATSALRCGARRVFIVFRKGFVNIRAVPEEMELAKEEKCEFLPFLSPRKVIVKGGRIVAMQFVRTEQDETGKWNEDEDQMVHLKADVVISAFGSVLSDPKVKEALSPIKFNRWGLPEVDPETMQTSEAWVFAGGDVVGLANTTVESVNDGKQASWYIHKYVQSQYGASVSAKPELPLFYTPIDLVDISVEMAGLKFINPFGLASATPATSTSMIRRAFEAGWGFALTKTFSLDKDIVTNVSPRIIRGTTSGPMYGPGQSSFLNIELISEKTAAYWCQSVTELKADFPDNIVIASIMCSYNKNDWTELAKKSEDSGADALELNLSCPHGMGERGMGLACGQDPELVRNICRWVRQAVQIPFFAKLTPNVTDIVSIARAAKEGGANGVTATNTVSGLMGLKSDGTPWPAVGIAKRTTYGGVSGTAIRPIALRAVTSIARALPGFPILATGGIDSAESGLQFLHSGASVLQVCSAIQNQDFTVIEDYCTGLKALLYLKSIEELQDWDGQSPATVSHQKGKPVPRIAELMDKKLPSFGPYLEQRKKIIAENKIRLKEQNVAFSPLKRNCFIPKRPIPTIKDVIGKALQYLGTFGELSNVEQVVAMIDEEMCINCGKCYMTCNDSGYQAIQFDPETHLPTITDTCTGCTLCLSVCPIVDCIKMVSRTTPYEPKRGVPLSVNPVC

[6] = tested on: liver cancer cell line Huh7; assay: Cytotoxicity assay (CellTiter Glo), Huh7; type: cell-based; settings: Homo sapiens, Huh-7, 72 h or 120 h incubation, Compound No. 1 tested as TEA salt
Protocol: as §1, §2, §3, §4

[7] = tested on: colon cancer cell line HCT-116; assay: Cytotoxicity assay (CellTiter Glo), HCT-116; type: cell-based; settings: Homo sapiens, 72 h or 120 h incubation, Compound No. 1 tested as TEA salt
Protocol: as §1, §2, §3, §4

[8] = tested on: gastric cancer cell line MKN45; assay: Cytotoxicity assay (CellTiter Glo), MKN45; type: cell-based; settings: Homo sapiens, MKN-45, 72 h or 120 h incubation, Compound No. 1 tested as TEA salt
Protocol: as §1, §2, §3, §4

[9] = tested on: liver cancer cell line Hep3B; assay: Cytotoxicity assay (CellTiter Glo), Hep3B; type: cell-based; settings: Homo sapiens, 72 h or 120 h incubation, Compound No. 1 tested as TEA salt
Protocol: as §1, §2, §3, §4

[10] = tested on: liver cancer cell line HepG2; assay: Cytotoxicity assay (CellTiter Glo), HepG2; type: cell-based; settings: Homo sapiens, 72 h or 120 h incubation, Compound No. 1 tested as TEA salt
Protocol: as §1, §2, §3, §4

| Structure (SMILES) | CC50 [1] [µM] | CC50 [2] [µM] | CC50 [3] [µM] | CC50 [4] [µM] | fraction catabolized by dihydropyrimidine dehydrogenase (DPD) to pharmacodynamically inactive metabolites [5] | CC50 [6] [µM] | CC50 [7] [µM] | CC50 [8] [µM] | CC50 [9] [µM] | CC50 [10] [µM] |
| --- | --- | --- | --- | --- | --- | --- | --- | --- | --- | --- |
| O=c1[nH]cc(F)c(=O)[nH]1 [5-FU, 5-Fluorouracil] | 13.1 | 14.8 | 3.99 | 8.26 | 80-85% | 7.3 | 6.79 | 1.68 | 3.67 | 1.74 |
| CC(C)OC(=O)OCn1c(=O)c(F)cn([C@H]2C[C@@H]3OP(=O)(O)OC[C@H]3O2)c1=O [Compound No. 1, (4aR,6R,7aS)-6-(5-fluoro-3-(((isopropoxycarbonyl)oxy)methyl)-2,4-dioxo-3,4-dihydropyrimidin-1(2H)-yl)tetrahydro-4H-furo[3,2-d][1,3,2]dioxaphosphinin-2-olate 2-oxide triethylamine salt] | 0.06 | 0.015 | 0.515 | 0.706 | – | 0.013 | 0.411 | 0.021 | 0.045 | 0.314 |
